According to patent US11203571B2, “Sulfonamides as modulators of sodium channels” (VERTEX PHARMACEUTICALS INCORPORATED, priority 2013, dated 2021):

Tests used:
[1] = Human liver microsome assay; format: in vitro ADME; conditions: 1 uM substrate, 0.5 mg/mL liver microsome, 2 mM NADPH, 37° C., referenced against time zero control
Description: Human Liver Microsome Assay Protocol
Liver microsomal stability data were generated as follows. Substrates were incubated at 37° C. and shaken for 30 minutes in a phosphate buffered solution with human liver microsomes and the cofactor NADPH. A time zero control was similarly prepared, however with NADPH excluded. The final incubation concentrations were 1 uM substrate (0.2% DMSO), 0.5 mg/mL liver microsome, 2 mM NADPH, and 0.1 M phosphate. Reactions were quenched and proteins precipitated with the addition of 2 volume equivalents of ice cold acetonitrile containing an internal standard. Following a centrifugation step, aliquots from the quenched incubations were further diluted with 4 volume equivalents of a 50% aqueous methanol solution and then subjected to LC/MS/MS analysis for quantitation of parent substrate. Microsome stability values were calculated as the percent of substrate remaining after 30 minutes referenced against the time zero control.

human Nav1.8 = human Nav1.8 (Homo sapiens (Human), UniProt Q9Y5Y9); test: E-VIPR optical membrane potential assay with electrical stimulation; format: cell-based; conditions: HEK cells expressing human Nav1.8
human Nav1.8, sequence (Q9Y5Y9 whole entry): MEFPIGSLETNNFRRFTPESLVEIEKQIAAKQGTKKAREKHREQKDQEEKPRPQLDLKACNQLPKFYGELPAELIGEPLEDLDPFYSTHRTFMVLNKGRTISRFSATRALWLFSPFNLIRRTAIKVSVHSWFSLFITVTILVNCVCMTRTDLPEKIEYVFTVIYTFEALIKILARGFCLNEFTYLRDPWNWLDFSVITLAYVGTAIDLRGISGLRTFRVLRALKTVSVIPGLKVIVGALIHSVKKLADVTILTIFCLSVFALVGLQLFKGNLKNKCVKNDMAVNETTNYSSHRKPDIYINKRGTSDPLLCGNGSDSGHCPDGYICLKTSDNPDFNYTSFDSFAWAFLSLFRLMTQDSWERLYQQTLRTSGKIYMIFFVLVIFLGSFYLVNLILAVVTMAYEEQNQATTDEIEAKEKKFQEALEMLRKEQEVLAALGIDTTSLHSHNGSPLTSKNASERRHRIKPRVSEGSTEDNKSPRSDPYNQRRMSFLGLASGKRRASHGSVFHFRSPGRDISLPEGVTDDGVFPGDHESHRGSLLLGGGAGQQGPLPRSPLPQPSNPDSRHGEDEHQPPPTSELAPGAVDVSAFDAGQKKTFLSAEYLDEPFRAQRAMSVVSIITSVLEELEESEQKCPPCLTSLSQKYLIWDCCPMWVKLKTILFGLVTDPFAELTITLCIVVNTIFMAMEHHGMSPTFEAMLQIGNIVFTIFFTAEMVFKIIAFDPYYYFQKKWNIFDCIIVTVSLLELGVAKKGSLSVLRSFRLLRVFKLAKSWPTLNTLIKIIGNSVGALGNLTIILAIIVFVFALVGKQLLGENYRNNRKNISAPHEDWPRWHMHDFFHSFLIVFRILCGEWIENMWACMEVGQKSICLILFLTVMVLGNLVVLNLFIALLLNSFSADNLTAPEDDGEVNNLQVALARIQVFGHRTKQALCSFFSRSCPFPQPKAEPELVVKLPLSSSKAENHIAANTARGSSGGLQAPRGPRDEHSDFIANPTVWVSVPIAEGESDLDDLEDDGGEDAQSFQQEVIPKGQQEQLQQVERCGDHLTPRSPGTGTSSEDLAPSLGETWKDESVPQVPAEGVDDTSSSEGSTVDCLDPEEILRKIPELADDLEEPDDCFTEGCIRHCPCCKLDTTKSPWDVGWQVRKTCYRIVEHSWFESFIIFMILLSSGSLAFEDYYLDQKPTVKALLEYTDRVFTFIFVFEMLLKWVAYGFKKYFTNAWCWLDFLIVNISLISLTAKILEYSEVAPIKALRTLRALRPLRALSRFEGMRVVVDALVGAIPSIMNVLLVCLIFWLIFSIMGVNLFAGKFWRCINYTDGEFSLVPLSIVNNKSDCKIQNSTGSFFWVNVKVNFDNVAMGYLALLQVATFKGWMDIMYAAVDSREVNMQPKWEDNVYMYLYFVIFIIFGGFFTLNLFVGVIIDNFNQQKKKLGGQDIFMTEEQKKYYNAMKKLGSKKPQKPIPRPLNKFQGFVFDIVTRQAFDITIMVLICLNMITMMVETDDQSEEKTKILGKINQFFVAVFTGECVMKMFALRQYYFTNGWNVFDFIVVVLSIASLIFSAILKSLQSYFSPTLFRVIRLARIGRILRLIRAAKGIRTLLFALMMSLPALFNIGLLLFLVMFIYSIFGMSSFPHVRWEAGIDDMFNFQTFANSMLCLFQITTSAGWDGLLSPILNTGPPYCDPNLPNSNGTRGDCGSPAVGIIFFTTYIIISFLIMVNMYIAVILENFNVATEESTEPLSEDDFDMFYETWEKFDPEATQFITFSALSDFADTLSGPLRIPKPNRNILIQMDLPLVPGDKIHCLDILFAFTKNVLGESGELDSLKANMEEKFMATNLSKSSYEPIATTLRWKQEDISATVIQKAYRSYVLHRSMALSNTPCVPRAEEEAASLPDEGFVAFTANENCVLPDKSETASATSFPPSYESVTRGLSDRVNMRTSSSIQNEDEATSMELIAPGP
Excerpt: E-VIPR Optical Membrane Potential Assay Method with Electrical Stimulation
Sodium channels are voltage-dependent proteins that can be activated by inducing membrane voltage changes by applying electric fields. The electrical stimulation instrument and methods of use are described in Ion Channel Assay Methods PCT/US01/21652, herein incorporated by reference and are referred to as E-VIPR. The instrument comprises a microtiter plate handler, an optical system for exciting the coumarin dye while simultaneously recording the coumarin and oxonol emissions, a waveform generator, a current- or voltage-controlled amplifier, and a device for inserting electrodes in well. Under integrated computer control, this instrument passes user-programmed electrical stimulus protocols to cells within the wells of the microtiter plate.
24 hours before the assay on E-VIPR, HEK cells expressing human Nav1.8 were seeded in 384-well poly-lysine coated plates at 15,000-20,000 cells per well. HEK cells were grown in media (exact composition is specific to each cell type and NaV subtype) supplemented with 10% FBS (Fetal Bovine Serum, qualified; GibcoBRL #16140-071) and 1% Pen-Strep (Penicillin-Streptomycin; GibcoBRL #15140-122). Cells were grown in vented cap flasks, in 90% humidity and 5% CO2.
• 100 mg/mL Pluronic F-127 (Sigma #P2443), in dry DMSO • Compound Plates: 384-well round bottom plate, e.g. Corning 384-well Polypropylene Round Bottom #3656 • Cell Plates: 384-well tissue culture treated plate, e.g. Greiner #781091-1B • 10 mM DiSBAC6(3) (Aurora #00-100-010) in dry DMSO • 10 mM CC2-DMPE (Aurora #00-100-008) in dry DMSO • 200 mM ABSC1 in H20
Bath1 buffer: Glucose 10 mM (1.8 g/L), Magnesium Chloride (Anhydrous), 1 mM (0.095 g/L), Calcium Chloride, 2 mM (0.222 g/L), HEPES 10 mM (2.38 g/L), Potassium Chloride, 4.5 mM (0.335 g/L), Sodium Chloride 160 mM (9.35 g/L).
Hexyl Dye Solution: Bath1 Buffer+0.5% β-cyclodextrin (make this prior to use, Sigma #C4767), 8 μM CC2-DMPE+2.5 μM DiSBAC6(3). To make the solution Added volume of 10% Pluronic F127 stock equal to volumes of CC2-DMPE+DiSBAC6(3). The order of preparation was first mix Pluronic and CC2-DMPE, then added DiSBAC6(3) while vortexing, then added Bath1+β-Cyclodextrin.
1) Pre-spotted compounds (in neat DMSO) into compound plates. Vehicle control (neat DMSO), the positive control (20 mM DMSO stock tetracaine, 125 μM final in assay) and test compounds were added to each well at 160× desired final concentration in neat DMSO. Final compound plate volume was 80 μL (80-fold intermediate dilution from 1 μL DMSO spot; 160-fold final dilution after transfer to cell plate). Final DMSO concentration for all wells in assay was 0.625%.
2) Prepared Hexyl Dye Solution.
3) Prepared cell plates. On the day of the assay, medium was aspirated and cells were washed three times with 100 μL of Bath1 Solution, maintaining 25 μL residual volume in each well.
4) Dispensed 25 μL per well of Hexyl Dye Solution into cell plates. Incubated for 20-35 minutes at room temp or ambient conditions.
5) Dispensed 80 μL per well of Bath1 into compound plates. Acid Yellow-17 (1 mM) was added and Potassium Chloride was altered from 4.5 to 20 mM depending on the NaV subtype and assay sensitivity.
6) Washed cell plates three times with 100 μL per well of Bath1, leaving 25 μL of residual volume. Then transferred 25 uL per well from Compound Plates to Cell Plates. Incubated for 20-35 minutes at room temp/ambient condition.
7) Read Plate on E-VIPR. Used the current-controlled amplifier to deliver stimulation wave pulses for 10 seconds and a scan rate of 200 Hz. A pre-stimulus recording was performed for 0.5 seconds to obtain the un-stimulated intensities baseline. The stimulatory waveform was followed by 0.5 seconds of post-stimulation recording to examine the relaxation to the resting state.
Data was analyzed and reported as normalized ratios of emission intensities measured in the 460 nm and 580 nm channels. […]

SMILES	HLM: percent unchanged after 30 min [1] [%]	IC50 (human Nav1.8) [nM]
COc1cc(Cl)ccc1Oc1ccc(C(F)(F)F)cc1C(=O)Nc1cccc(S(N)(=O)=O)c1 [Compound 35, 2-(4-chloro-2-methoxyphenoxy)-N-(3-sulfamoylphenyl)-5-(trifluoromethyl)benzamide]	82	5
COc1ccc(Oc2ccc(C(F)(F)F)cc2C(=O)Nc2cccc(S(N)(=O)=O)c2)c(OC)c1 [Compound 36, 2-(2,4-dimethoxyphenoxy)-N-(3-sulfamoylphenyl)-5-(trifluoromethyl)benzamide]	66	4
CC(C)Oc1ccc(Oc2ccc(C(F)(F)F)cc2C(=O)Nc2cccc(S(N)(=O)=O)c2)cc1 [Compound 37, 2-(4-isopropoxyphenoxy)-N-(3-sulfamoylphenyl)-5-(trifluoromethyl)benzamide]	76	6
Cc1cccc(Oc2ccc(F)cc2Cl)c1C(=O)Nc1cccc(S(N)(=O)=O)c1 [Compound 38, 2-(2-chloro-4-fluorophenoxy)-6-methyl-N-(3-sulfamoylphenyl)benzamide]	105	14
NS(=O)(=O)c1cccc(NC(=O)c2cc(C(F)(F)F)ccc2Oc2ccc(OC(F)(F)F)cc2)c1 [Compound 39, N-(3-sulfamoylphenyl)-2-(4-(trifluoromethoxy)phenoxy)-5-(trifluoromethyl)benzamide]	104	10
NS(=O)(=O)c1cccc(NC(=O)c2cc(C(F)F)ccc2Oc2ccc(F)cc2Cl)c1 [Compound 40, 2-(2-chloro-4-fluorophenoxy)-5-(difluoromethyl)-N-(3-sulfamoylphenyl)benzamide]	107	7
NS(=O)(=O)c1cccc(NC(=O)c2cc(C(F)(F)F)ccc2Oc2ccc(OC(F)F)cc2)c1 [Compound 41, 2-(4-(difluoromethoxy)phenoxy)-N-(3-sulfamoylphenyl)-5-(trifluoromethyl)benzamide]	95	22
COc1cc(Cl)ccc1Oc1cc(C(F)(F)F)ccc1C(=O)Nc1cccc(S(N)(=O)=O)c1 [Compound 42, 2-(4-chloro-2-methoxyphenoxy)-N-(3-sulfamoylphenyl)-4-(trifluoromethyl)benzamide]	84	10
COc1ccc(Oc2cc(C(F)(F)F)ccc2C(=O)Nc2cccc(S(N)(=O)=O)c2)cc1F [Compound 43, 2-(3-fluoro-4-methoxyphenoxy)-N-(3-sulfamoylphenyl)-4-(trifluoromethyl)benzamide]	90	21
COc1ccccc1Oc1cc(C(F)(F)F)ccc1C(=O)Nc1cccc(S(N)(=O)=O)c1 [Compound 44, 2-(2-methoxyphenoxy)-N-(3-sulfamoylphenyl)-4-(trifluoromethyl)benzamide]	79	20
CCOc1ccc(Oc2cc(C(F)(F)F)ccc2C(=O)Nc2cccc(S(N)(=O)=O)c2)cc1 [Compound 45, 2-(4-ethoxyphenoxy)-N-(3-sulfamoylphenyl)-4-(trifluoromethyl)benzamide]	72	21

Second part, the molecule after the results:

HLM: percent unchanged after 30 min [1] [%]	IC50 (human Nav1.8) [nM]	SMILES
67	14	CCCOc1ccccc1Oc1cc(C(F)(F)F)ccc1C(=O)Nc1cccc(S(N)(=O)=O)c1 [Compound 46, 2-(2-propoxyphenoxy)-N-(3-sulfamoylphenyl)-4-(trifluoromethyl)benzamide]
100	14	Cc1ccccc1Oc1cc(C(F)(F)F)ccc1C(=O)Nc1cccc(S(N)(=O)=O)c1 [Compound 47, N-(3-sulfamoylphenyl)-2-(o-tolyloxy)-4-(trifluoromethyl)benzamide]
68	10	COc1ccc(Oc2cc(C(F)(F)F)ccc2C(=O)Nc2cccc(S(N)(=O)=O)c2)c(Cl)c1 [Compound 48, 2-(2-chloro-4-methoxyphenoxy)-N-(3-sulfamoylphenyl)-4-(trifluoromethyl)benzamide]
57	12	COc1ccc(Oc2cc(C(F)(F)F)ccc2C(=O)Nc2cccc(S(N)(=O)=O)c2)c(C)c1 [Compound 49, 2-(4-methoxy-2-methylphenoxy)-N-(3-sulfamoylphenyl)-4-(trifluoromethyl)benzamide]
72	8	COc1ccc(Oc2cc(C(F)(F)F)ccc2C(=O)Nc2cccc(S(N)(=O)=O)c2)c(OC)c1 [Compound 50, 2-(2,4-dimethoxyphenoxy)-N-(3-sulfamoylphenyl)-4-(trifluoromethyl)benzamide]
89	14	NS(=O)(=O)c1cccc(NC(=O)c2ccc(C(F)(F)F)cc2Oc2ccc(OC(F)(F)F)cc2)c1 [Compound 51, N-(3-sulfamoylphenyl)-2-(4-(trifluoromethoxy)phenoxy)-4-(trifluoromethyl)benzamide]
81	11	COc1c(F)cccc1Oc1cc(C(F)(F)F)ccc1C(=O)Nc1cccc(S(N)(=O)=O)c1 [Compound 52, 2-(3-fluoro-2-methoxyphenoxy)-N-(3-sulfamoylphenyl)-4-(trifluoromethyl)benzamide]
71	26	CC(C)Oc1ccc(Oc2cc(C(F)(F)F)ccc2C(=O)Nc2cccc(S(N)(=O)=O)c2)cc1 [Compound 53, 2-(4-isopropoxyphenoxy)-N-(3-sulfamoylphenyl)-4-(trifluoromethyl)benzamide]
96	5	COc1cc(F)ccc1Oc1cc(OC(F)(F)F)ccc1C(=O)Nc1cccc(S(N)(=O)=O)c1 [Compound 54, 2-(4-fluoro-2-methoxyphenoxy)-N-(3-sulfamoylphenyl)-4-(trifluoromethoxy)benzamide]
95	9	NS(=O)(=O)c1cccc(NC(=O)c2ccc(OC(F)(F)F)cc2Oc2ccc(F)cc2)c1 [Compound 55, 2-(4-fluorophenoxy)-N-(3-sulfamoylphenyl)-4-(trifluoromethoxy)benzamide]
102	4	NS(=O)(=O)c1cccc(NC(=O)c2ccc(OC(F)(F)F)cc2Oc2ccc(F)cc2Cl)c1 [Compound 56, 2-(2-chloro-4-fluorophenoxy)-N-(3-sulfamoylphenyl)-4-(trifluoromethoxy)benzamide]
78	27	COc1ccccc1Oc1cccc(C(F)(F)F)c1C(=O)Nc1cccc(S(N)(=O)=O)c1 [Compound 57, 2-(2-methoxyphenoxy)-N-(3-sulfamoylphenyl)-6-(trifluoromethyl)benzamide]
